Test results as given in US11780845B2 (Relay Therapeutics, Inc., priority 2019, dated 2023).
pIC50: −log10 of the molar value.

Target: FGFR2 (Homo sapiens (Human), UniProt P21802)
Assay: Biochemical FGFR2 Caliper assay
Details: not given

FGFR2, sequence (P21802 22-821): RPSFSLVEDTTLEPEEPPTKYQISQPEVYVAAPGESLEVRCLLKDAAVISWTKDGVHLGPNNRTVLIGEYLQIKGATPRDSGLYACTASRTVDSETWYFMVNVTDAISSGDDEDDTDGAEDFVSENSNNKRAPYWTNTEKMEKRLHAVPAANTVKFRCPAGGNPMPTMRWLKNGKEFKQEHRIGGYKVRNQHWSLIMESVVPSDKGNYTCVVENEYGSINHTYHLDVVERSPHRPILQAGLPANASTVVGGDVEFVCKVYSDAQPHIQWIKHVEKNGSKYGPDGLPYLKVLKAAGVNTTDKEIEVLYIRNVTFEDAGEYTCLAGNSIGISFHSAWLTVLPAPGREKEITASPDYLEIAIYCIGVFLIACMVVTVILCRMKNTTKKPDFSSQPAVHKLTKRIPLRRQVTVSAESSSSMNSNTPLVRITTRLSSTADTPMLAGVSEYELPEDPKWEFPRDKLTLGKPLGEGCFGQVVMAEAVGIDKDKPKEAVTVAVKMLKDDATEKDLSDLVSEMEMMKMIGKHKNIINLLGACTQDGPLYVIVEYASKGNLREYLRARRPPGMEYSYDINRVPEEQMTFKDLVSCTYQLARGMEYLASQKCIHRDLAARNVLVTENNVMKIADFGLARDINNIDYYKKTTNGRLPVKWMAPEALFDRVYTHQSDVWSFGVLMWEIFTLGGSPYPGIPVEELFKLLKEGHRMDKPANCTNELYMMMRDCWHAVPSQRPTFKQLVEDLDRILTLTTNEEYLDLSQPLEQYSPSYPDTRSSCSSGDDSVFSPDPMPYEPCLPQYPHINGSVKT

SMILES	pIC50
C=C(C)C(=O)Nc1ccc(-c2c(-c3ccc(-c4cccc(O)c4)c(C#N)c3)c3c(N)ncnc3n2C)cc1 [Example 1389]	4.00 to 6.00
C=CC(=O)N1CCC(n2cc(-c3c(-c4ccc(C(=O)NCC(C)(C)OC)cc4)c4c(N)ncnc4n3C)cn2)CC1 [Example 851]	4.00 to 6.00
C#Cc1cc(-c2c(-c3ccc(Oc4nccc(C)n4)c(F)c3)c3c(N)ncnc3n2C)ccn1 [Example 1237]	6.00 to 6.60
C#Cc1cnc2cc(-c3c(-c4ccc(Oc5nccc(C)n5)c(F)c4)c4c(N)ncnc4n3C)ccc2c1 [Example 1425]	4.00 to 6.00
Cc1ccnc(Oc2ccc(-c3c(-c4ccc(NC(=O)/C=C/CN(C)C)cc4)n(C)c4ncnc(N)c34)cc2)n1 [Example 1041]	6.60 to 7.00
C=CC(=O)N1CC(c2c(-c3ccc(C(=O)c4nccc(C)n4)cc3F)c3c(N)ncnc3n2C)C[C@@H]1C (stereo partly shown) [Example 885]	4.00 to 6.00
C=C(C)C(=O)Nc1ccc(-c2c(-c3ccc(O)c(F)c3)c3c(N)ncnc3n2C)cc1 [Example 1437]	6.00 to 6.60
C#Cc1ncc(-c2c(-c3ccc(C(=O)NCC(C)C)c(F)c3)c3c(N)ncnc3n2C)c(C)c1F [Example 1261]	> 7.00
C=C(C)C(=O)Nc1ccc(-c2c(-c3ccc(-c4cccc(O)c4)nc3)c3c(N)ncnc3n2C)cc1 [Example 1372]	4.00 to 6.00
C=C(C)C(=O)Nc1ccc(-c2c(-c3ccc4oc(C)nc4c3)c3c(N)ncnc3n2C)cc1 [Example 1280]	6.00 to 6.60
C=C(C)C(=O)Nc1ccc(-c2c(-c3ccc4nc(C)sc4c3)c3c(N)ncnc3n2C)cc1 [Example 1279]	6.00 to 6.60
C=CC(=O)N1CC[C@H](c2c(C3=CC[C@H](C(=O)N4CCCC4)CC3)c3c(N)ncnc3n2C)C1 (single isomer, unassigned) [Example 873]	4.00 to 6.00
C=Cc1ccc(-c2c(-c3ccc4nn[nH]c4c3)c3c(N)ncnc3n2C)cn1 [Example 1352]	> 7.00
C=C1CCc2ccc(-c3c(-c4ccc(Oc5nccc(C)n5)cc4)c4c(N)ncnc4n3C)cc2C1=O [Example 1242]	6.60 to 7.00
CNC(=O)/C(C#N)=C/c1ccc(-c2c(-c3ccc(Oc4nccc(C)n4)c(F)c3)c3c(N)ncnc3n2C)c(C)c1 [Example 1309]	> 7.00
C=CC(=O)Nc1ccc(-c2c(C3=CC[C@@H](C(=O)N4CCCC4)CC3)c3c(N)ncnc3n2C)c(C)c1 (single isomer, unassigned) [Example 1102]	> 7.00

The next lines start with the values.

pIC50	SMILES
> 7.00	C#Cc1ncc(-c2c(-c3ccc(Oc4nccc(C)n4)c(F)c3)c3c(N)ncnc3n2C)c(C)c1C [Example 1365]
> 7.00	C=C(C)C(=O)Nc1ccc(-c2c(C3=CC[C@@H](C(=O)N4CCCC4)CC3)c3c(N)ncnc3n2C)c(F)c1 [Example 1002]
> 7.00	C#Cc1ncc(-c2c(-c3ccc(Oc4nccc(C)n4)c(Cl)c3)c3c(N)ncnc3n2C)c(C)c1F [Example 1264]
> 7.00	C#Cc1cc(C)c(-c2c(-c3ccc(Oc4nccc(C)n4)c(F)c3)c3c(N)ncnc3n2C)c(C)n1 [Example 1215]
> 7.00	C=C(C)C(=O)Nc1cnc(-c2c(-c3ccc(Oc4cccc(C)n4)c(F)c3)c3c(N)ncnc3n2C)c(F)c1 [Example 1086]
> 7.00	C=CC(=O)N[C@H]1CCN(c2cccc(-c3c(-c4ccc(Oc5cccc(C)n5)cc4)c4c(N)ncnc4n3C)c2)C1 (single isomer, unassigned) [Example 1031]
> 7.00	C=Cc1ncc(-c2ccc(-c3c(-c4ccc(Oc5nccc(C)n5)cc4)c4c(N)ncnc4n3C)cc2)o1 [Example 947]

Test system: SNU-16
Assay: Cell SNU-16 assay
Format: cell-based
Details: Homo sapiens, SNU-16, SNU-16 cells

SMILES	pIC50
C=C(C)C(=O)Nc1ccc(-c2c(-c3ccc(-c4cccc(O)c4)c(C#N)c3)c3c(N)ncnc3n2C)cc1 [Example 1389]	6.00 to 6.60
C=CC(=O)N1CCC(n2cc(-c3c(-c4ccc(C(=O)NCC(C)(C)OC)cc4)c4c(N)ncnc4n3C)cn2)CC1 [Example 851]	4.00 to 6.00
C#Cc1cc(-c2c(-c3ccc(Oc4nccc(C)n4)c(F)c3)c3c(N)ncnc3n2C)ccn1 [Example 1237]	≥ 7.00
C#Cc1cnc2cc(-c3c(-c4ccc(Oc5nccc(C)n5)c(F)c4)c4c(N)ncnc4n3C)ccc2c1 [Example 1425]	4.00 to 6.00
Cc1ccnc(Oc2ccc(-c3c(-c4ccc(NC(=O)/C=C/CN(C)C)cc4)n(C)c4ncnc(N)c34)cc2)n1 [Example 1041]	≥ 7.00
C=C(C)C(=O)Nc1ccc(-c2c(-c3ccc(O)c(F)c3)c3c(N)ncnc3n2C)cc1 [Example 1437]	4.00 to 6.00
C#Cc1ncc(-c2c(-c3ccc(C(=O)NCC(C)C)c(F)c3)c3c(N)ncnc3n2C)c(C)c1F [Example 1261]	≥ 7.00
C=C(C)C(=O)Nc1ccc(-c2c(-c3ccc(-c4cccc(O)c4)nc3)c3c(N)ncnc3n2C)cc1 [Example 1372]	4.00 to 6.00
C=C(C)C(=O)Nc1ccc(-c2c(-c3ccc4oc(C)nc4c3)c3c(N)ncnc3n2C)cc1 [Example 1280]	6.00 to 6.60
C=C(C)C(=O)Nc1ccc(-c2c(-c3ccc4nc(C)sc4c3)c3c(N)ncnc3n2C)cc1 [Example 1279]	6.00 to 6.60
C=CC(=O)N1CC[C@H](c2c(C3=CC[C@H](C(=O)N4CCCC4)CC3)c3c(N)ncnc3n2C)C1 (single isomer, unassigned) [Example 873]	6.00 to 6.60
C=Cc1ccc(-c2c(-c3ccc4nn[nH]c4c3)c3c(N)ncnc3n2C)cn1 [Example 1352]	≥ 7.00
C=C1CCc2ccc(-c3c(-c4ccc(Oc5nccc(C)n5)cc4)c4c(N)ncnc4n3C)cc2C1=O [Example 1242]	4.00 to 6.00
CNC(=O)/C(C#N)=C/c1ccc(-c2c(-c3ccc(Oc4nccc(C)n4)c(F)c3)c3c(N)ncnc3n2C)c(C)c1 [Example 1309]	6.00 to 6.60
C=CC(=O)Nc1ccc(-c2c(C3=CC[C@@H](C(=O)N4CCCC4)CC3)c3c(N)ncnc3n2C)c(C)c1 (single isomer, unassigned) [Example 1102]	≥ 7.00

Now from value to compound:

pIC50	SMILES
≥ 7.00	C#Cc1ncc(-c2c(-c3ccc(Oc4nccc(C)n4)c(F)c3)c3c(N)ncnc3n2C)c(C)c1C [Example 1365]
≥ 7.00	C=C(C)C(=O)Nc1ccc(-c2c(C3=CC[C@@H](C(=O)N4CCCC4)CC3)c3c(N)ncnc3n2C)c(F)c1 [Example 1002]
≥ 7.00	C#Cc1ncc(-c2c(-c3ccc(Oc4nccc(C)n4)c(Cl)c3)c3c(N)ncnc3n2C)c(C)c1F [Example 1264]
≥ 7.00	C#Cc1cc(C)c(-c2c(-c3ccc(Oc4nccc(C)n4)c(F)c3)c3c(N)ncnc3n2C)c(C)n1 [Example 1215]
≥ 7.00	C=C(C)C(=O)Nc1cnc(-c2c(-c3ccc(Oc4cccc(C)n4)c(F)c3)c3c(N)ncnc3n2C)c(F)c1 [Example 1086]
6.60 to 7.00	C=CC(=O)N[C@H]1CCN(c2cccc(-c3c(-c4ccc(Oc5cccc(C)n5)cc4)c4c(N)ncnc4n3C)c2)C1 (single isomer, unassigned) [Example 1031]
≥ 7.00	C=Cc1ncc(-c2ccc(-c3c(-c4ccc(Oc5nccc(C)n5)cc4)c4c(N)ncnc4n3C)cc2)o1 [Example 947]

Same assay, conditions: SNU-16 cells

pIC50	SMILES
4.00 to 6.00	C=CC(=O)N1CC(c2c(-c3ccc(C(=O)c4nccc(C)n4)cc3F)c3c(N)ncnc3n2C)C[C@@H]1C (stereo partly shown) [Example 885]
